How the values were obtained:
CB2 = molecular target: T1, CB2 (Homo sapiens, UniProt P34972); experiment: SafetyScreen44 (Panlabs) panel; type: binding; conditions: 10 μM
T1 construct: Panlabs (SafetyScreen44 panel)
Protocol: (§1) Other targets included with less than ≥50% stimulation at a concentration of 10 μM: Acetylcholinesterase, COX-1, COX-2, MAO-A, PDE3A, PDE4D2, Protein Tyrosine Kinase (LCK), Adenosine A2A, Adrenergic α1A, Adrenergic α2A, Adrenergic β1, Adrenergic β2, Androgen (Testosterone), Calcium Channel L-Type (Dihydropyridine), CB1, CB2, Cholecystokinin CCK1 (CCKA), Dopamine D1, Dopamine D2S, Endothelin ETA, GABAA (Flunitrazepam, Central), Glucocorticoid, Glutamate-NMDA (Agonism), Histamine H1, Histamine H2, Muscarinic M1, Muscarinic M2, Muscarinic M3, Nicotinic Acetylcholine α4β2, (Cytisine), DOP, KOP, MOP, Potassium Channel [KA], Potassium Channel hERG, Serotonin (5-Hydroxytryptamine) 5-HT1A, 5-HT1B, 5-HT3, Na-channel site 2, DAT, NET, SERT, Vasopressin V1A

Androgen (Testosterone) = experiment: SafetyScreen44 (Panlabs) panel; type: binding; conditions: 10 μM
Protocol: as §1

Potassium Channel hERG = molecular target: T2, Potassium Channel hERG (Homo sapiens, UniProt Q12809); experiment: SafetyScreen44 (Panlabs) panel; type: binding; conditions: 10 μM
T2 construct: Panlabs (SafetyScreen44 panel)
Protocol: as §1

DAT = molecular target: T3, DAT (Homo sapiens, UniProt Q01959); experiment: SafetyScreen44 (Panlabs) panel; type: binding; conditions: 10 μM
T3 construct: Panlabs (SafetyScreen44 panel)
Protocol: as §1

CB1 = molecular target: T4, CB1 (Homo sapiens, UniProt P21554); experiment: SafetyScreen44 (Panlabs) panel; type: binding; conditions: 10 μM
T4 construct: Panlabs (SafetyScreen44 panel)
Protocol: as §1

DOP = molecular target: T5, DOP (Homo sapiens, UniProt P41143); experiment: SafetyScreen44 (Panlabs) panel; type: binding; conditions: 10 μM
T5 construct: Panlabs (SafetyScreen44 panel)
Protocol: as §1

Adrenergic β1 = molecular target: T6, Adrenergic β1 (Homo sapiens, UniProt P08588); experiment: SafetyScreen44 (Panlabs) panel; type: binding; conditions: 10 μM
T6 construct: Panlabs (SafetyScreen44 panel)
Protocol: as §1

[1] = molecular target: T7, Cholecystokinin CCK1 (CCKA) (Homo sapiens, UniProt P32238); experiment: SafetyScreen44 (Panlabs) panel; type: binding; conditions: 10 μM
T7 construct: Panlabs (SafetyScreen44 panel)
Protocol: as §1

Adrenergic α2A = molecular target: T8, Adrenergic α2A (Homo sapiens, UniProt P08913); experiment: SafetyScreen44 (Panlabs) panel; type: binding; conditions: 10 μM
T8 construct: Panlabs (SafetyScreen44 panel)
Protocol: as §1

Potassium Channel [KA] = experiment: SafetyScreen44 (Panlabs) panel; type: binding; conditions: 10 μM
Protocol: as §1

Dopamine D1 = molecular target: T9, Dopamine D1 (Homo sapiens, UniProt P21728); experiment: SafetyScreen44 (Panlabs) panel; type: binding; conditions: 10 μM
T9 construct: Panlabs (SafetyScreen44 panel)
Protocol: as §1

[2] = molecular target: T10, Serotonin (5-Hydroxytryptamine) 5-HT1A (Homo sapiens, UniProt P08908); experiment: SafetyScreen44 (Panlabs) panel; type: binding; conditions: 10 μM
T10 construct: Panlabs (SafetyScreen44 panel)
Protocol: as §1

NET = molecular target: T11, NET (Homo sapiens, UniProt P23975); experiment: SafetyScreen44 (Panlabs) panel; type: binding; conditions: 10 μM
T11 construct: Panlabs (SafetyScreen44 panel)
Protocol: as §1

[3] = test system: Calcium Channel L-Type (Dihydropyridine); experiment: SafetyScreen44 (Panlabs) panel; type: binding; conditions: 10 μM
Protocol: as §1

Histamine H2 = molecular target: T12, Histamine H2 (Homo sapiens, UniProt P25021); experiment: SafetyScreen44 (Panlabs) panel; type: binding; conditions: 10 μM
T12 construct: Panlabs (SafetyScreen44 panel)
Protocol: as §1

Na-channel site 2 = experiment: SafetyScreen44 (Panlabs) panel; type: binding; conditions: 10 μM
Protocol: as §1

Adenosine A2A = molecular target: T13, Adenosine A2A (Homo sapiens, UniProt P29274); experiment: SafetyScreen44 (Panlabs) panel; type: binding; conditions: 10 μM
T13 construct: Panlabs (SafetyScreen44 panel)
Protocol: as §1

Muscarinic M1 = molecular target: T14, Muscarinic M1 (Homo sapiens, UniProt P11229); experiment: SafetyScreen44 (Panlabs) panel; type: binding; conditions: 10 μM
T14 construct: Panlabs (SafetyScreen44 panel)
Protocol: as §1

MOP = molecular target: T15, MOP (Homo sapiens, UniProt P35372); experiment: SafetyScreen44 (Panlabs) panel; type: binding; conditions: 10 μM
T15 construct: Panlabs (SafetyScreen44 panel)
Protocol: as §1

Adrenergic β2 = molecular target: T16, Adrenergic β2 (Homo sapiens, UniProt P07550); experiment: SafetyScreen44 (Panlabs) panel; type: binding; conditions: 10 μM
T16 construct: Panlabs (SafetyScreen44 panel)
Protocol: as §1

5-HT1B = experiment: SafetyScreen44 (Panlabs) panel; type: binding; conditions: 10 μM
Protocol: as §1

Dopamine D2S = molecular target: T17, Dopamine D2S (Homo sapiens, UniProt P14416); experiment: SafetyScreen44 (Panlabs) panel; type: binding; conditions: 10 μM
T17 construct: Panlabs (SafetyScreen44 panel)
Protocol: as §1

[4] = molecular target: T18, Serotonin (5-Hydroxytryptamine) 5-HT2B (Homo sapiens, UniProt P41595); experiment: SafetyScreen44 (Panlabs) panel, replacement of standard ligand; type: binding; conditions: hum
T18 construct: Panlabs (SafetyScreen44 panel)

[5] = Head twitch response assay; type: in vivo, Mice (C57bl/6J); conditions: mice, 1, 3, 10, and 30 mg/kg s.c., vs positive control DOI
Protocol: FIG. 2. […] N=5 mice in each cohort. […] Drugs were administered s.c.
Mice (C57bl/6J, 8-15 weeks, 26-33 g) were weighed and moved to the testing room 30 minutes prior to experimentation. Mice were administered the experimental compound at a selected dose s.c. and then immediately moved to a new cage. Before beginning the test, mice were allowed to remain in this cage for a set amount of time ranging 0-10 min based on the compound. The head twitch assay was performed by a trained observer watching the mouse for a 10 min duration and recording the total number of head twitches observed.
DOI was tested at the doses of 1, 3, 10 and 30 mg/kg (s.c., 5 mice per dose) and testing began immediately after administration of the compound. Ariadne (32), (29) and (38) were tested at the doses of 1, 3, 10, and 30 mg/kg (s.c., 5 mice per dose) and there was a 10 min interval between treatment and testing.

[6] = at therapeutically effective doses in animals and humans; cited from earlier work

T4 sequence (P21554 whole entry): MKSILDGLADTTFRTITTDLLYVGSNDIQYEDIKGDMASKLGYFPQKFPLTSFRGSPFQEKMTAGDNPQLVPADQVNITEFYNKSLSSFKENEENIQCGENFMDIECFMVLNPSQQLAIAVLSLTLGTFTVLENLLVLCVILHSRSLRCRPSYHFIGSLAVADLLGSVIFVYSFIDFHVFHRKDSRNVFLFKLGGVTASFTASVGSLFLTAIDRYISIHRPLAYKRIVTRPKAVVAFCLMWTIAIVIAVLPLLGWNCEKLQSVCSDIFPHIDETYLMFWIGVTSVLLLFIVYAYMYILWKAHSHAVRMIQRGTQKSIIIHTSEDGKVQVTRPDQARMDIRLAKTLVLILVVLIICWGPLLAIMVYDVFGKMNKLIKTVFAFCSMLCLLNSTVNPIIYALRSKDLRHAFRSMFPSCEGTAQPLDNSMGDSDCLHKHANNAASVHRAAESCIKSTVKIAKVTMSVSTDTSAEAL
T11 sequence (P23975 whole entry): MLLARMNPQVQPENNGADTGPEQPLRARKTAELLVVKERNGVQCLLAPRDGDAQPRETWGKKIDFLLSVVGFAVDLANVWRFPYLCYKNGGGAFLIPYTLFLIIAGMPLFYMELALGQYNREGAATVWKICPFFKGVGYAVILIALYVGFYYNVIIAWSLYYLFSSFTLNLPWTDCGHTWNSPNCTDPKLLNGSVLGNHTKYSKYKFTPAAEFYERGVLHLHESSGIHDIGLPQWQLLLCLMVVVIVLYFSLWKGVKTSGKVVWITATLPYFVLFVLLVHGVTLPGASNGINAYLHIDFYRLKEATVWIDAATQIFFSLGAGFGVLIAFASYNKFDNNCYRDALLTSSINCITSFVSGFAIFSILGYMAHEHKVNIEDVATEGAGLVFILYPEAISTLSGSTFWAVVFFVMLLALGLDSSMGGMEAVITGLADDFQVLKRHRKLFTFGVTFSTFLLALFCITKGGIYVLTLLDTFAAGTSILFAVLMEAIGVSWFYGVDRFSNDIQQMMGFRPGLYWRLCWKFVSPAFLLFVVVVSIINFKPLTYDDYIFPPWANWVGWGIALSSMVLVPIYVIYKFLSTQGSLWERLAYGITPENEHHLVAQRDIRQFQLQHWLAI
T3 sequence (Q01959 whole entry, species assumed): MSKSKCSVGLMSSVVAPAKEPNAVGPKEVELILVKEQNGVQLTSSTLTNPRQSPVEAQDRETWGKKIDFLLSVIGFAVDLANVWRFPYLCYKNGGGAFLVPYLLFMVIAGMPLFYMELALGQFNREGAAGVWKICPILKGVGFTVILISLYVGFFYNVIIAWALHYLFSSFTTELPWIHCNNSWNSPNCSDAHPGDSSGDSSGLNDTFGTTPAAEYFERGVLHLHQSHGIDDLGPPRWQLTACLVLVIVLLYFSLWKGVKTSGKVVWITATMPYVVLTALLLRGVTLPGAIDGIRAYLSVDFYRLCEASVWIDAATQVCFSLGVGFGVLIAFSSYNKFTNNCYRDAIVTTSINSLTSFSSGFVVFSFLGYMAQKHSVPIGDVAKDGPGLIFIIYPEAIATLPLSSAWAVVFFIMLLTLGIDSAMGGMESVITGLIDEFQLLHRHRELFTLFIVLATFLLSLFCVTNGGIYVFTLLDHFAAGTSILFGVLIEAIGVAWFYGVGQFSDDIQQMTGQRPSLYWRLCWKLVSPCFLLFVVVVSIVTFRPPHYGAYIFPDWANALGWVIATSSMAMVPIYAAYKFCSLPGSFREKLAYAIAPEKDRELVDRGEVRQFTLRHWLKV
T7 sequence (P32238 whole entry): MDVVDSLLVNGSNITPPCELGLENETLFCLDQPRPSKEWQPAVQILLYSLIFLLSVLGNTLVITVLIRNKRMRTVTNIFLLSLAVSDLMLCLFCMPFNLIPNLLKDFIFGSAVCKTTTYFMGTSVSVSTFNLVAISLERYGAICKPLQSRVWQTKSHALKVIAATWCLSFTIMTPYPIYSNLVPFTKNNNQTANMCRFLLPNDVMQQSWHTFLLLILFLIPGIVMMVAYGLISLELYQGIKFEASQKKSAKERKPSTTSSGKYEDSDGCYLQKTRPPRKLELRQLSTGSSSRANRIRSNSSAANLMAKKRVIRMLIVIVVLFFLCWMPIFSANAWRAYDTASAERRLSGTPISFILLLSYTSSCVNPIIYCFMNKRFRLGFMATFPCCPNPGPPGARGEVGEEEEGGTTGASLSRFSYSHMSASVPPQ
T1 sequence (P34972 whole entry): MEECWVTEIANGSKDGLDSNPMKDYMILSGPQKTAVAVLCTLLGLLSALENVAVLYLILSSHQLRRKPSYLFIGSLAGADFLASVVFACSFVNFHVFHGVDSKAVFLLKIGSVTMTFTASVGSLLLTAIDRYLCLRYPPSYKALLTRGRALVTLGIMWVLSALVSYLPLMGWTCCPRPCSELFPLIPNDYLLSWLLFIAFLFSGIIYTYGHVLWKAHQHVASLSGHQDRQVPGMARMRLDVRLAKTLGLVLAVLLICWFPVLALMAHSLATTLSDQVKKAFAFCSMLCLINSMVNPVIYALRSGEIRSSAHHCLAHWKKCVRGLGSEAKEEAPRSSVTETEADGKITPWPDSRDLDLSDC
T13 sequence (P29274 whole entry): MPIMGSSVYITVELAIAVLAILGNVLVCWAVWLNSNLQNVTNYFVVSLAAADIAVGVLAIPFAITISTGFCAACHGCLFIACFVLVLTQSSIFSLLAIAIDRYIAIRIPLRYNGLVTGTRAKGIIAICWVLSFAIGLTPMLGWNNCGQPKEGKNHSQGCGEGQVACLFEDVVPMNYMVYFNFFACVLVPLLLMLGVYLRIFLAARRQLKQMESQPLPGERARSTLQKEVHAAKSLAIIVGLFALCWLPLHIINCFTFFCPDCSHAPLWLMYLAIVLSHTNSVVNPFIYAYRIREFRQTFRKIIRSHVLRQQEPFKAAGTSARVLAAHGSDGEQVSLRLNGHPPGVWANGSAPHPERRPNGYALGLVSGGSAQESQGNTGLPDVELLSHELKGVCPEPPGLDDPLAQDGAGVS
T10 sequence (P08908 whole entry): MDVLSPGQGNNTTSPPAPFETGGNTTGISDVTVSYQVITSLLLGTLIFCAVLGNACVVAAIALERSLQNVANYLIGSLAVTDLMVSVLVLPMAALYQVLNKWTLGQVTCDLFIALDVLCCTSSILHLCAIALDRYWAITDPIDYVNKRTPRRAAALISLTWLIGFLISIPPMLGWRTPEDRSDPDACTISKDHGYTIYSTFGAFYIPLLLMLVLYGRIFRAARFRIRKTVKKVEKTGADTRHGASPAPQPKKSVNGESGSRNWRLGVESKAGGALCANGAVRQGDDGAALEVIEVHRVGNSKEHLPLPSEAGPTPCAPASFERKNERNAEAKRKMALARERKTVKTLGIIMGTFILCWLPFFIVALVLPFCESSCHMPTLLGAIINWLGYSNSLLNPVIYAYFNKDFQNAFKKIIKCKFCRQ
T5 sequence (P41143 whole entry): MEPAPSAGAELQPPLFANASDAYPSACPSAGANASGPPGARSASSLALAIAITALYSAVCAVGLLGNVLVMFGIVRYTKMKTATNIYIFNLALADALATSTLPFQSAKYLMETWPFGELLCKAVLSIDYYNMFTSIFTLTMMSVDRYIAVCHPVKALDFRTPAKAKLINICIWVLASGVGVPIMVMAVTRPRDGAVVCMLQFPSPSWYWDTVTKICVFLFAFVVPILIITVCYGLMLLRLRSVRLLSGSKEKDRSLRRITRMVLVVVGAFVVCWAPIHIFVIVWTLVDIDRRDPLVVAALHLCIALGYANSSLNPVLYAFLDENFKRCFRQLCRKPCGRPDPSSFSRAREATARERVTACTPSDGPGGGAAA
T14 sequence (P11229 whole entry): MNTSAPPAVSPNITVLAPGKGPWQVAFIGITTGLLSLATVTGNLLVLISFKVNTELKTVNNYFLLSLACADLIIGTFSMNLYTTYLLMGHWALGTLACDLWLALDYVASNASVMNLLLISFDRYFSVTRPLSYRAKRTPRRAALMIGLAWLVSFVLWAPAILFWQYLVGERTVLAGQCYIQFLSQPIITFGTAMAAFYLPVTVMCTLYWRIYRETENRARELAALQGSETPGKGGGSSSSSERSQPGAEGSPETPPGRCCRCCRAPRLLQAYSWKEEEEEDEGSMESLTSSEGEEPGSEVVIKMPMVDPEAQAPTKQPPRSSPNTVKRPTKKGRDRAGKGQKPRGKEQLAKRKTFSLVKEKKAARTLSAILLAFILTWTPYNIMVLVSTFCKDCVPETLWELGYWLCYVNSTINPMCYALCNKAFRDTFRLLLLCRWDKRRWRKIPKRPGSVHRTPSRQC
T6 sequence (P08588 whole entry): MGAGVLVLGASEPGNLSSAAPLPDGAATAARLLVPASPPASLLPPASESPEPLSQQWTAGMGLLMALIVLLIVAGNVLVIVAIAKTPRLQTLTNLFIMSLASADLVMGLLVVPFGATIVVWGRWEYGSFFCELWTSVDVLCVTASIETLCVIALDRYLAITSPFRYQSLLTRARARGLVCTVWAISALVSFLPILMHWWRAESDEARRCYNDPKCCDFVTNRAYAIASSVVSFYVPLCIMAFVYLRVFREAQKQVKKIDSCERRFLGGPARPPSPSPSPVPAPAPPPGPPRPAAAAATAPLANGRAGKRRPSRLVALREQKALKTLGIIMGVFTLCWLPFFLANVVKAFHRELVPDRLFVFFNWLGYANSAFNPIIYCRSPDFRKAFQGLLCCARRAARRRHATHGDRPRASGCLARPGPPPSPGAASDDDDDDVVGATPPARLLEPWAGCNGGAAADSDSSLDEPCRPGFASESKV

With `CCC(N)Cc1cc(OC)c(C)cc1OC` (stereo not shown) [Ariadne (32), 1-(2,5-dimethoxy-4-methylphenyl)butan-2-amine] as the compound, how does the “% stimulation” value (CB2) read?
The value was less than 50%.

What about the “% stimulation” value (Androgen (Testosterone)) of the same compound?
Its value is less than 50%.

And the “% stimulation” value (Potassium Channel hERG)?
The value was less than 50%.

What about the “% stimulation” value (DAT) of the same compound?
Its value is less than 50%.

And the “% stimulation” value (CB1)?
The value was less than 50%.

What about the “% stimulation” value (DOP) of the same compound?
The value was less than 50%.

What about the “% stimulation” value (Adrenergic β1) of the same compound?
The value was less than 50%.

And the “% stimulation” value [1]?
The value was less than 50%.

And the “% stimulation” value (Adrenergic α2A)?
The value was less than 50%.

What about the “% stimulation” value (Potassium Channel [KA]) of the same compound?
Its value is less than 50%.

And the “% stimulation” value (Dopamine D1)?
Its value is less than 50%.

And the “% stimulation” value [2]?
The value was less than 50%.

And the “% stimulation” value (NET)?
Its value is less than 50%.

And the “% stimulation” value [3]?
Its value is less than 50%.

What about the “% stimulation” value (Histamine H2) of the same compound?
Its value is less than 50%.

What about the “% stimulation” value (Na-channel site 2) of the same compound?
Its value is less than 50%.

What about the “% stimulation” value (Adenosine A2A) of the same compound?
Its value is less than 50%.

And the “% stimulation” value (Muscarinic M1)?
Its value is less than 50%.

And the “% stimulation” value (MOP)?
Its value is less than 50%.

And the “% stimulation” value (Adrenergic β2)?
Its value is less than 50%.

What about the “% stimulation” value (5-HT1B) of the same compound?
Its value is less than 50%.

And the “% stimulation” value (Dopamine D2S)?
Its value is less than 50%.

And the inhibition at 10 µM [4]?
The inhibition at 10 µM was 72%.

And the “psychedelic activity (number of head twitches in a 10-min period)” value [5]?
Its value is “lower psychedelic activity”.

What about the hallucinogenic effect [6] of the same compound?
Its hallucinogenic effect is “no hallucinogenic effect”.

— US20240109836A1, “NON-HALL[…] ANALOGS FOR TREATMENT OF NEUROLOGICAL AND PSYCHIATRIC DISORDERS” (The Trustees of Columbia University in the City of New York, priority 2021, published 2024)
